Source: patent US7897602B2, “Indolinone compounds as kinase inhibitors” (Development Center for Biotechnology, priority 2009, dated 2011)

Legend:
Type in all cases: biochemical
[1] = target: T1, Aurora A kinase (Homo sapiens, UniProt O14965); experiment: Aurora A kinase assay ([γ-33P]ATP, CHOCKtide substrate); conditions: 1.0 μM test compound
T1 construct: purchased Upstate
T1 sequence (O14965 1-403): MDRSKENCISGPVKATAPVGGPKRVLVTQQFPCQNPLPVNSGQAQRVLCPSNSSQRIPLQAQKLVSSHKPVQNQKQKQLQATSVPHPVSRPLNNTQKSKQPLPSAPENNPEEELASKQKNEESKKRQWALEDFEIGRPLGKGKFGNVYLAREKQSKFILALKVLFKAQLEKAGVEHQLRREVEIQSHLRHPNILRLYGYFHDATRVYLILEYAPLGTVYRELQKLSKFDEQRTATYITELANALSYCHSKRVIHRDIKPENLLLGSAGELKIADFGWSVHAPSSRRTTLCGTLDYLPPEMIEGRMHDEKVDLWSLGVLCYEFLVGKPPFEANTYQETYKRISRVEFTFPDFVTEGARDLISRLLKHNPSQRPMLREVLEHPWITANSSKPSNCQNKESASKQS
How it was run: (§1)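 Radiometric filter-binding format: 33P incorporation into CHOCKtide counted after acid stop and filtration. Reactions ran 30 min at 33 °C, Aurora A with 10 μM ATP, Aurora B with 40 μM ATP. IC50 taken as concentration giving half-maximal kinase inhibition.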

[2] = target: T2, Aurora B kinase (Homo sapiens, UniProt Q96GD4); experiment: Aurora B kinase assay ([γ-33P]ATP, CHOCKtide substrate); conditions: 1.0 μM test compound
T2 construct: purchased Cell signaling
How it was run: as §1

[3] = target: T3, VEGFR2 kinase (Homo sapiens, UniProt P35968); experiment: VEGFR2 kinase assay (33P incorporation into Poly(Glu-Tyr)); conditions: 500 nM test compound; read-out: Inhibition at 500 nM (%) VEGFr-2
T3 construct: recombinant N-terminal 6×His-tagged VEGFR2 kinase domain construct expressed by baculovirus; 6xHis (N); made in house
Protocol: Inhibition of VEGFR2 kinase activity by compounds disclosed herein was quantified by measuring the amount of [^33P] incorporated into the substrate in the presence of a test compound. Specifically, a reaction mixture with a final volume of 25 μL and containing 6.25 ng of VEGFR2 kinase (obtained by purifying recombinant N-terminal 6×His-tagged VEGFR2 kinase domain construct expressed by baculovirus), 5 μg of substrate (Poly (Glu-Tyr, 4:1, Sigma)), kinase reaction buffer (20 mM MOPS pH 7.0, 1 mM EDTA, 5% glycerol, 0.01% Brij-35, 0.1% β-mercaptoethanol, 1 mg/mL BSA, 100 μM ATP, 0.1 μCi per well [^33P]-γ-ATP (2,500-3,000 Ci/mmol), and 500 nM test compound (final concentration of DMSO was 4%) or 4% DMSO alone (as the control sample), was incubated at 30° C. for 30 minutes. The reaction was then stopped by adding 5 μL of 3% phosphoric acid solution. The resultant solution was transferred to and harvested by a filter plate (UniFilter-96 GF/B, PerkinElmer). The filter plate was then washed 20 times with d.d. H2O for 5 min followed by the addition of 30 μL of MicroScint™-20 Cocktail (PerkinElmer). After the plate was sealed, the retained radioactivity on the filter was counted using a TopCount scintillation detector (PerkinElmer). The percentage of inhibition rate of the test compound was calculated by dividing the retained radioactivity of the test sample with the retained radioactivity of the control sample and shown in Table 3.

[4] = target: T4, PDGFR-β kinase (Homo sapiens, UniProt P09619); experiment: PDGFR-β kinase assay (33P incorporation into Poly(Glu-Tyr)); conditions: 500 nM test compound
T4 construct: recombinant N-terminal 6×His-tagged PDGFR-β kinase domain construct expressed by baculovirus; 6xHis (N); made in house
Protocol: Inhibition of PDGFR-β kinase activity by compounds disclosed herein was quantified by measuring the amount of [^33P] incorporated into the substrate in the presence of a test compound. Briefly, a reaction mixture of 25 μL final volume containing 55 ng of PDGFR-β kinase (obtained by purifying recombinant N-terminal 6×His-tagged PDGFR-β kinase domain construct expressed by baculovirus), 2.5 μg of the substrate (Poly (Glu-Tyr, 4:1, Sigma)), kinase reaction buffer (20 mM MOPS pH 7.0, 1 mM EDTA, 5% glycerol, 0.01% Brij-35, 0.1% β-mercaptoethanol, 1 mg/mL BSA, 2 mM MnCl2, 30 μM ATP, 0.1 μCi per well [^33P]-γ-ATP (2,500-3,000 Ci/mmol)), and a test compound (500 nM, diluted with 4% DMSO) or DMSO (as the control) was incubated at 30° C. for 30 minutes. The reaction was stopped by adding 5 μL of 3% phosphoric acid solution. The resultant reaction solution was then harvested onto a filter plate (UniFilter-96 GF/B, PerkinElmer), washed 20 times for 5 min with d.d. H2O, and followed by the addition of 30 μL of MicroScint™-20 Cocktail (PerkinElmer). The plate was then sealed and counted using a TopCount scintillation detector (PerkinElmer). The percentage of inhibition rate of the test compound was calculated by dividing the retained radioactivity of the test sample with the retained radioactivity of the control sample and shown in Table 3.

[5] = target: T5, Flt3 kinase (Homo sapiens, UniProt P36888); experiment: Flt3 kinase assay (33P incorporation into Poly(Glu-Tyr)); conditions: 100 nM test compound; read-out: Inhibition at 100 nM (%) Flt-3
T5 construct: recombinant N-terminal 6×His-tagged Flt3 kinase domain construct expressed from baculovirus; 6xHis (N); made in house
T5 sequence (P36888 610-943 limits assumed): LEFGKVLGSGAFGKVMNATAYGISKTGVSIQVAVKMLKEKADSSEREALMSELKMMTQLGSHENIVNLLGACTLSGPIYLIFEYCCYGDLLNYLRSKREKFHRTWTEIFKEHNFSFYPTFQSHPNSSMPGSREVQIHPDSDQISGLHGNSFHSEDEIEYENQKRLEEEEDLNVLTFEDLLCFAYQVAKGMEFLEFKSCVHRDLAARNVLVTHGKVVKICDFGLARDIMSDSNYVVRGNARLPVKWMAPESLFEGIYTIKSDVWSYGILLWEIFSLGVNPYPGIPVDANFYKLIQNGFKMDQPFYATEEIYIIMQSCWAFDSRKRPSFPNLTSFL
Protocol: Inhibition of Flt3 kinase activity by compounds disclosed herein was quantified by measuring the amount of [^33P] incorporated into the substrate in the presence of a test compound. Briefly, a reaction mixture of 25 μL final volume containing 5 ng of Flt3 kinase (obtained by purifying recombinant N-terminal 6×His-tagged Flt3 kinase domain construct expressed from baculovirus), 5 μg of the substrate (Poly (Glu-Tyr, 4:1, Sigma)), kinase reaction buffer (20 mM MOPS pH 7.0, 1 mM EDTA, 5% glycerol, 0.01% Brij-35, 0.1% β-mercaptoethanol, 1 mg/mL BSA, 100 μM ATP, 0.1 μCi per well [^33P]-γ-ATP (2,500-3,000 Ci/mmol)), and a test compound (100 nM, diluted with 4% DMSO) or DMSO (as the control) was incubated at 30° C. for 30 minutes. The reaction was stopped by adding 5 μL of 3% phosphoric acid solution. The resultant reaction solution was then harvested onto a filter plate (UniFilter-96 GF/B, PerkinElmer), washed 20 times for 5 min with d.d. H2O, and followed by the addition of 30 μL of MicroScint™-20 Cocktail (PerkinElmer). The plate was then sealed and counted using a TopCount scintillation detector (PerkinElmer). The percentage of inhibition rate of the test compound was calculated by dividing the retained radioactivity of the test sample with the retained radioactivity of the control sample and shown in Table 3.

[6] = target: T6, c-Met kinase (Homo sapiens, UniProt P08581); experiment: c-Met kinase assay (33P incorporation into Poly(Glu-Tyr)); conditions: 500 nM test compound
T6 construct: recombinant N-terminal 6×His-tagged c-Met kinase domain construct expressed from baculovirus; 6xHis (N); made in house
How it was run: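 Single-concentration test (500 nM compound) at 30° C for 30 min, pH 7.0 MOPS buffer with 100 μM ATP and [33P]-γ-ATP. Enzyme was baculovirus-expressed 6×His c-Met kinase domain (5 ng), substrate Poly(Glu-Tyr) 4:1. Inhibition percentage derived from filter-bound counts relative to DMSO control.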

T2 sequence (Q96GD4 whole entry): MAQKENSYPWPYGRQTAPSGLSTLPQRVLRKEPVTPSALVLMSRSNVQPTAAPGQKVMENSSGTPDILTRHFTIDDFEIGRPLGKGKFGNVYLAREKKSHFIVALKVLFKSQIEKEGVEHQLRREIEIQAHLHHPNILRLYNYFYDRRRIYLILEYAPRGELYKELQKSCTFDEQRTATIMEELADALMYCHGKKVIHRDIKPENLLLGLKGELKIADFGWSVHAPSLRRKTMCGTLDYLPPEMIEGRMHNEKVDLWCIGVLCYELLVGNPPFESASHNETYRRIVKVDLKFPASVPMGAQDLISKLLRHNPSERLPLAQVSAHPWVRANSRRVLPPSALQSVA
T6 sequence (P08581 1078-1345 limits assumed): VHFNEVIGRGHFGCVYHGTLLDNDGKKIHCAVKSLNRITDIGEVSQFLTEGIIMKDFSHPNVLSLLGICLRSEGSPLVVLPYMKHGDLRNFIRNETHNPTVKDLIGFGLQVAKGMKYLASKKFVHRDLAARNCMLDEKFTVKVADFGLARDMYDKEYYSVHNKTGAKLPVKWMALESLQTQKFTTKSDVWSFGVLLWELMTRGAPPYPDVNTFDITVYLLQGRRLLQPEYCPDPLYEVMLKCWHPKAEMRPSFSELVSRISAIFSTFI
T3 sequence (P35968 834-1162 limits assumed): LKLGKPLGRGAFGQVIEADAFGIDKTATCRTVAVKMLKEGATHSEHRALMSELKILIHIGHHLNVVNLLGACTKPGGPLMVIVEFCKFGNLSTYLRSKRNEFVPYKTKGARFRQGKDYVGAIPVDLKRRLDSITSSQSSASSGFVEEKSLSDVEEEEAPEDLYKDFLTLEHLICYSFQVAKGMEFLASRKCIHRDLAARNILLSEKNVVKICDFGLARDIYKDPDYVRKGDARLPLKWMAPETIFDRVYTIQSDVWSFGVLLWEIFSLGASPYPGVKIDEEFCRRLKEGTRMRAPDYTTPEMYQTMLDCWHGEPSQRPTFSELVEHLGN
T4 sequence (P09619 600-962 limits assumed): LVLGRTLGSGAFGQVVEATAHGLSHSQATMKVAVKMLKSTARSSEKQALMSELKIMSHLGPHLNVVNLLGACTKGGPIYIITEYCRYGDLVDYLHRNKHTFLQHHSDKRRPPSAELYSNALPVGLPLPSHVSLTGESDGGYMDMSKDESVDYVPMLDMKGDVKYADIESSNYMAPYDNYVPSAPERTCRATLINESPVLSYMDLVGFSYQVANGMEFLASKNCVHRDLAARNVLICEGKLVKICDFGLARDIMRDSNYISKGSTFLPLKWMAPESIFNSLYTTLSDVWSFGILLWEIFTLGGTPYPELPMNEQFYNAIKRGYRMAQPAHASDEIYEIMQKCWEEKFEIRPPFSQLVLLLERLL

SMILES | inhibition at 1 µM [1] | inhibition at 1 µM [2] | inhibition at 0.5 µM [3] | inhibition at 0.5 µM [4] | inhibition at 0.1 µM [5] | inhibition at 0.5 µM [6]
O=C(O)CCc1c(/C=C2\C(=O)Nc3ccc(NC(=O)c4ccc([N+](=O)[O-])cc4)cc32)[nH]c2c1C(=O)CCC2 [DCB-70142, (Z)-3-(2-((5-(4-nitrobenzamido)-2-oxoindolin-3-ylidene)methyl)-4-oxo-4,5,6,7-tetrahydro-1H-indol-3-yl)propanoic acid] | 27.1% | 2.4% | 44.8% | 7.9% | 11.8% | 
CCOC(=O)CCc1c(/C=C2\C(=O)Nc3cc(-c4ccc(O)cc4)ccc32)[nH]c2c1C(=O)CCCC2 [DCB-70150, (Z)-ethyl 3-(2-((6-(4-hydroxyphenyl)-2-oxoindolin-3-ylidene)methyl)-4-oxo-1,4,5,6,7,8-hexahydrocyclohepta[b]pyrrol-3-yl)propanoate] | 8.9% | 18% |  |  | 17.1% | 0.2%
O=C(O)CCc1c(/C=C2\C(=O)Nc3cc(-c4ccc(O)cc4)ccc32)[nH]c2c1C(=O)CCCC2 [DCB-70151, (Z)-3-(2-((6-(4-hydroxyphenyl)-2-oxoindolin-3-ylidene)methyl)-4-oxo-1,4,5,6,7,8-hexahydrocyclohepta[b]pyrrol-3-yl)propanoic acid] | 37.2% | 23.6% |  |  | 42.2% | -6.5%
